Assay results from patent US20240382557A1, “INHIBITION OF TUMOR NECROSIS FACTOR, PRO-INFLAMMATORY CYTOKINES AND OTHER INFLAMMATORY RESPONSE MEDIATORS” (Allegro Pharmaceuticals, LLC, priority 2021, published 2024).
Where a SMILES comes first, the peptide text is derived from it. [ ]: non-standard residue; d: D form. Cya = N[C@@H](CS(=O)(=O)O)C(=O)O

Test system: Primary human immune cells (PBMC)
Assay: RNA-seq gene expression in primary human immune cells after risuteganib
Type: cell-based
Details: 100 μM, 8 hours
Description: Purpose: In this study, RNA-seq was used to unbiasedly identify the genes regulated by risuteganib exposure in primary human immune cells. Analysis of the specific subset of genes regulated by risuteganib enables identification of biological processes and pathways modulated by the oligopeptide Methods: Primary human immune cells (PBMC) were obtained from a single human donor. The cells were separated into two groups: vehicle or 100 μM risuteganib treatment for 8 hours. After exposure, cells were collected and their total RNA isolated for RNA-seq. The generated reads were then aligned to human reference genome/transcriptome and gene expression quantified for differential expression analysis and fold change calculation. The list of regulated genes was then used to identify biological processes and pathways that are regulated after Risuteganib exposure compared to vehicle control.

Compound: C[C@@H](O)[C@H](NC(=O)[C@H](CS(=O)(=O)O)NC(=O)CNC(=O)[C@H](CCCNC(=N)N)NC(=O)CN)C(=O)N1CCC[C@H]1C(=O)O [Risuteganib, Glycyl-L-arginylglycyl-3-sulfo-L-alanyl-L-threonyl-L-proline] (H-GRG[Cya]TP-OH)
- LILRB3 Mean Expression Rate (Normalized as Fraction Control): 0.9396
- LILRB4 Mean Expression Rate (Normalized as Fraction Control): 0.897
- LIMK1 Mean Expression Rate (Normalized as Fraction Control): 0.9285
- LRP1 Mean Expression Rate (Normalized as Fraction Control): 0.9405
- LTB4R Mean Expression Rate (Normalized as Fraction Control): 0.834
- LTBR Mean Expression Rate (Normalized as Fraction Control): 0.9644
- MAN2B1 Mean Expression Rate (Normalized as Fraction Control): 0.9706
- MAP2K7 Mean Expression Rate (Normalized as Fraction Control): 0.9421
- MCEMP1 Mean Expression Rate (Normalized as Fraction Control): 0.86
- MCOLN1 Mean Expression Rate (Normalized as Fraction Control): 0.9403
- MMP9 Mean Expression Rate (Normalized as Fraction Control): 0.9125
- MMP25 Mean Expression Rate (Normalized as Fraction Control): 0.8959
- MT2A Mean Expression Rate (Normalized as Fraction Control): 0.9216
- MUCL1 Mean Expression Rate (Normalized as Fraction Control): 0.6866
- MYO1G Mean Expression Rate (Normalized as Fraction Control): 0.9214
- NBEAL2 Mean Expression Rate (Normalized as Fraction Control): 0.9432
- NCF4 Mean Expression Rate (Normalized as Fraction Control): 0.9433
- NECTIN2 Mean Expression Rate (Normalized as Fraction Control): 0.9479
- NFAM1 Mean Expression Rate (Normalized as Fraction Control): 0.8948
- NFKB2 Mean Expression Rate (Normalized as Fraction Control): 0.9675
- NFKBID Mean Expression Rate (Normalized as Fraction Control): 0.9203
- NPLOC4 Mean Expression Rate (Normalized as Fraction Control): 0.9748
- NRROS Mean Expression Rate (Normalized as Fraction Control): 0.9202
- ORAI1 Mean Expression Rate (Normalized as Fraction Control): 0.9714
- OSCAR Mean Expression Rate (Normalized as Fraction Control): 0.772
- OSM Mean Expression Rate (Normalized as Fraction Control): 0.8306
- OTUB1 Mean Expression Rate (Normalized as Fraction Control): 0.9445
- PDXK Mean Expression Rate (Normalized as Fraction Control): 0.973
- PFKL Mean Expression Rate (Normalized as Fraction Control): 0.9804
- PI3 Mean Expression Rate (Normalized as Fraction Control): 0.9158
- PILRA Mean Expression Rate (Normalized as Fraction Control): 0.9457
- PLAUR Mean Expression Rate (Normalized as Fraction Control): 0.9104
- PLD2 Mean Expression Rate (Normalized as Fraction Control): 0.9215
- PRAM1 Mean Expression Rate (Normalized as Fraction Control): 0.8661
- PRKCD Mean Expression Rate (Normalized as Fraction Control): 0.9631
- PSTPIP1 Mean Expression Rate (Normalized as Fraction Control): 0.9409
- QSOX1 Mean Expression Rate (Normalized as Fraction Control): 0.9355
- RAB5C Mean Expression Rate (Normalized as Fraction Control): 0.9246
- RAC2 Mean Expression Rate (Normalized as Fraction Control): 0.9763
- RAPGEF1 Mean Expression Rate (Normalized as Fraction Control): 0.9459
- RARA Mean Expression Rate (Normalized as Fraction Control): 0.8926
- RELB Mean Expression Rate (Normalized as Fraction Control): 0.9647
- RHOG Mean Expression Rate (Normalized as Fraction Control): 0.9592
- RNF19B Mean Expression Rate (Normalized as Fraction Control): 0.9469
- S100A11 Mean Expression Rate (Normalized as Fraction Control): 0.9492
- SH2B2 Mean Expression Rate (Normalized as Fraction Control): 0.879
- SIRPA Mean Expression Rate (Normalized as Fraction Control): 0.9657
- SLC11A1 Mean Expression Rate (Normalized as Fraction Control): 0.8842
- SLC26A6 Mean Expression Rate (Normalized as Fraction Control): 0.9452
- SOCS1 Mean Expression Rate (Normalized as Fraction Control): 0.9289
- SP2 Mean Expression Rate (Normalized as Fraction Control): 0.9613
- SRC Mean Expression Rate (Normalized as Fraction Control): 0.9483
- STK10 Mean Expression Rate (Normalized as Fraction Control): 0.9606
- STX4 Mean Expression Rate (Normalized as Fraction Control): 0.949
- STXBP2 Mean Expression Rate (Normalized as Fraction Control): 0.8885
- SUPT6H Mean Expression Rate (Normalized as Fraction Control): 0.9568
- TCIRG1 Mean Expression Rate (Normalized as Fraction Control): 0.892
- TFE3 Mean Expression Rate (Normalized as Fraction Control): 0.9731
- TICAM1 Mean Expression Rate (Normalized as Fraction Control): 0.9382
- TNF Mean Expression Rate (Normalized as Fraction Control): 0.9281
- TNFRSF1B Mean Expression Rate (Normalized as Fraction Control): 0.9604
- TNFRSF4 Mean Expression Rate (Normalized as Fraction Control): 0.9427
- TNFRSF13B Mean Expression Rate (Normalized as Fraction Control): 0.8508
- TNFRSF14 Mean Expression Rate (Normalized as Fraction Control): 0.9239
- TNFSF9 Mean Expression Rate (Normalized as Fraction Control): 0.8416
- TOM1 Mean Expression Rate (Normalized as Fraction Control): 0.9211
- TRAF3IP2 Mean Expression Rate (Normalized as Fraction Control): 0.9472
- TREM1 Mean Expression Rate (Normalized as Fraction Control): 0.9084
- TRPM2 Mean Expression Rate (Normalized as Fraction Control): 0.9391
- TYK2 Mean Expression Rate (Normalized as Fraction Control): 0.9711
- TYROBP Mean Expression Rate (Normalized as Fraction Control): 0.9329
- UNC13D Mean Expression Rate (Normalized as Fraction Control): 0.9577
- ZC3H12A Mean Expression Rate (Normalized as Fraction Control): 0.9757
- ZP3 Mean Expression Rate (Normalized as Fraction Control): 0.8491
- ZYX Mean Expression Rate (Normalized as Fraction Control): 0.9139
- genes associated with TNF-a pro-inflammatory pathway (pathway analysis) (adjusted p-value=6.22E-3): down-regulated
- NA Mean Expression Rate (Normalized as Fraction Control) (gene printed as NA): 0.9077
